Data set [1] has as its target human GLP-1 receptor (hGLP-1R) (Homo sapiens, UniProt P43220). Briefly: cAMP production (HTRF) in CHO cells expressing hGLP-1R. The data set is classed as cell-based. More on the design: expressed in transfected cells. As to conditions: for EC50: Table 6, peptides modified at position 17, cAMP in CHO hGLP-1R cells, geometric mean, read-out: hGLP-1R EC50; for % Relative Potency Ratio: Table 6, % GLP-1R activity relative to GLP-1 / % GlucR activity relative to glucagon. The method, boiled down: (§1)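 Potency values represent EC50 from 4-parameter logistic curves of HTRF % Delta F signal. Receptor-expressing CHO cells (hGCGR 2×10^5 cells/mL, hGLP-1R 1×10^5 cells/mL) were exposed for 30 min at room temperature before two-step cAMP detection.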
A general note: cAMP levels reflect the balance of adenylyl cyclase and phosphodiesterase activity.

The target of data set [2] is human glucagon receptor (hGCGR) (Homo sapiens, UniProt P47871). Briefly: cAMP production (HTRF) in CHO cells expressing hGCGR. Set-up: expressed in transfected cells. As to conditions: Table 6, peptides modified at position 17; cAMP in CHO hGCGR cells; geometric mean; read-out: hGluc-R EC50. The data set is classed as cell-based. The method, boiled down: as §1
Data set [3] in a line: Proteolytic resistance to FasSSIF/Pancreatin. The class given is in vitro ADME. The following applies: simulated intestinal fluid. How it is done: A fresh suspension of FasSSIF/P (Fasted-State Simulated Intestinal Fluid+USP Pancreatin®) was prepared according to that described by Galia, Nicolaides, Hörter, Löbenberg, Reppas and Dressman: Pharm. Res. 15 (1998) 698-705, and USP XL requirements. The resulting preparation was used immediately without storage.
Peptide for evaluation (1.0 mg) was dissolved in pre-warmed FasSSIF without Pancreatin® (200 μL). To this fresh FasSSIF/Pancreatin® (100 μL) was added to initiate potential proteolysis. Following momentary vortexing of the reaction tube the mixture was incubated at 37° C. in a thermostatic water bath for the duration of the experiment. 25 μL aliquot of the co-incubated peptide-enzyme mixture was periodically withdrawn (t=0, 5, 10 15 and 30 min) and quenched immediately by addition to a solution of 10% TFA in 1:1 water/acetonitrile (75 μL) to arrest proteolytic activity. Quenched samples were centrifuged (7800 RPM, 3 mins) to pellet solids and 10 μL aliquots of the supernatant solution were analyzed using analytical RP-HPLC as follows: Analytical RP-HPLC method: Agilent Polaris C8-A column (4.6×100 mm, 3 micron) eluted with a linear binary gradient of 10-90% MeCN (0.1% TFA v/v) in water (0.1% TFA v/v) over either 10 or 15 mins at 1.5 mL min^−1 at 40° C. with detection by UV absorption at 210 nm. Manual integration (AUC) allowed estimation of remaining intact peptide over the time course of the experiment.

A short description of data set [4]: Mouse acute food intake study. As to conditions: male C57Bl/6 mice, s.c., cumulative food intake at 24 hr vs vehicle. The data set is classed as in vivo. Put shortly:
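Single-housed male C57Bl/6 mice (8-9 weeks on arrival), chow-fed, acclimated and sham-dosed ≥2 times, were fasted 6-8 h, then given vehicle or peptide subcutaneously at 5 mL/kg 1-2 h before lights out. Food intake was recorded automatically over 48 h and analysed as cumulative intake.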

A further data set relates to wildtype (WT) mice. The data set is described as follows: Glucose change in wildtype mice. The following applies: s.c.; for WT % glucose change 120 min: 120 min vs 0 min, somatostatin pretreatment (octreotide) 30 min prior to cpd; for WT % glucose change 60 min: 60 min vs 0 min, no somatostatin pretreatment. The data set is classed as in vivo, mouse. The method, then:
(§2) GLP-1R knockout (KO) and wildtype (WT) mice at 8-14 weeks of age were singly housed on standard chow diet (Envigo, 2918) and automatic water. They acclimated for a minimum of ˜1-2 weeks, and mice were sorted into groups (n=4-8/group) based on body weight. On day of study, mice were fasted briefly for 2 hrs prior to study start. In some studies, mice were pre-treated with octreotide (BaChem, 10 mg/kg) at 30 minutes prior to peptide injection. Glucose was measured via glucometer at various timepoints including-30 min (prior to octreotide when used in studies), 0 min (before peptide dose), 30, 60, 120, 180, 240, and 360 minutes. Since these studies are acute in nature, mice were re-used for multiple studies (no more than 3) and always allowed at least a minimum wash-out period of 1 week.

The subject of data set [5] is GLP-1R knockout (KO) mice. Briefly: Glucose change in GLP-1R knockout mice. The class given is in vivo, mouse. The following applies: GLP-1R KO mice, s.c.; for GLP-1R KO % glucose change 120 min: 120 min vs 0 min, somatostatin pretreatment (octreotide) 30 min prior to cpd; for GLP-1R KO % glucose change - 60 min: 60 min vs 0 min, no somatostatin pretreatment. How it is done:
as §2, with “They” for “GLP-1R knockout (KO) and wildtype (WT) mice at 8-14 weeks of age were singly housed on standard chow diet (Envigo, 2918) and automatic water. They”

“And” between values parts separate entries of the source, which are not always exact repeats. Equal entries are not always repeated. Starred links: 1 amine or outer side, 2 acyl side, 3 side chain; linkers in the order of their positions; H or OH if unused. Non-standard residues stand in square brackets, D forms with d. Residues, ends and D or L forms follow the SMILES beside them. Groups on a side chain read outwards from the residue. *: point of attachment. Dip = N[C@H](C(=O)O)C(c1ccccc1)c1ccccc1; γGlu = O=C(O)[C@H](CCC(=O)[*:2])N[*:1]; Stearoyl = CCCCCCCCCCCCCCCCCC(=O)*; αMeF = C[C@](N)(Cc1ccccc1)C(=O)O; PEG2 = NCCOCCOCCC(=O)O; Aib = CC(C)(N)C(=O)O

Chain of human GLP-1 receptor (hGLP-1R) (P43220 24-463): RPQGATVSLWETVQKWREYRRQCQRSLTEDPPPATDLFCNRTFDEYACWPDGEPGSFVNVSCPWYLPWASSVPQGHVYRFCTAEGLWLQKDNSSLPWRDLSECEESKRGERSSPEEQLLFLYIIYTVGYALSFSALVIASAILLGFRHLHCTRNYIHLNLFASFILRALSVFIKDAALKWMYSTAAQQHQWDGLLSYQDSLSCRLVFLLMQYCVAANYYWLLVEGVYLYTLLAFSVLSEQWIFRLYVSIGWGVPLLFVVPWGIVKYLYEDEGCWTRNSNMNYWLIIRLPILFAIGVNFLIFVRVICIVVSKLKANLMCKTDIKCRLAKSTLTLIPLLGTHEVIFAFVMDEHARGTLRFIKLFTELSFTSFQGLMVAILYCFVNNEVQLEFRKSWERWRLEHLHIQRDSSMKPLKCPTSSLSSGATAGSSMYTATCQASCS
Chain of human glucagon receptor (hGCGR) (P47871 26-477): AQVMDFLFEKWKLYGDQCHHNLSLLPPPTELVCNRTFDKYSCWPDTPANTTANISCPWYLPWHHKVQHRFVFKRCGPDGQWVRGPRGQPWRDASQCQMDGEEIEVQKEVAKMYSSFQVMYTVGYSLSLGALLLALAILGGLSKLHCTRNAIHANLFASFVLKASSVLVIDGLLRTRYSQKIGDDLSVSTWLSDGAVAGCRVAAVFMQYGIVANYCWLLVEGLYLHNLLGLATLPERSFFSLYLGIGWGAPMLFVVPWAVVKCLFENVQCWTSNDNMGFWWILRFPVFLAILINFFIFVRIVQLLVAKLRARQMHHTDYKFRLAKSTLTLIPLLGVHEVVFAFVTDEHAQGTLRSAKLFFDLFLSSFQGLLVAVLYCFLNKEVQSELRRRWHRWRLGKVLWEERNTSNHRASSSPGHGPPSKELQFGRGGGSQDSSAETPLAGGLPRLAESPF

As for `CCCCCCCCCCCCCCCCCC(=O)N[C@@H](CCC(=O)N[C@@H](CCC(=O)NCCOCCOCCC(=O)NCCOCCOCCC(=O)NCCCC[C@H](NC(=O)[C@H](CO)NC(=O)[C@H](CC(=O)O)NC(=O)[C@H](CC(C)C)NC(=O)[C@@H](NC(=O)[C@H](CCCCN)NC(=O)[C@H](CO)NC(=O)[C@@H](NC(=O)[C@H](CC(=O)O)NC(=O)[C@H](CO)NC(=O)[C@@H](NC(=O)[C@](C)(Cc1ccccc1)NC(=O)[C@H](CO)NC(=O)CNC(=O)[C@H](CCC(N)=O)NC(=O)[C@H](CO)NC(=O)[C@@H](N)Cc1c[nH]cn1)[C@@H](C)O)C(C)C)C(c1ccccc1)c1ccccc1)C(=O)N[C@@H](C)C(=O)N[C@@H](C)C(=O)N[C@@H](CCC(N)=O)C(=O)N[C@@H](CC(=O)O)C(=O)N[C@@](C)(Cc1ccccc1)C(=O)N[C@H](C(=O)N[C@@H](CCC(=O)O)C(=O)NC(C)(C)C(=O)N[C@@H](CC(C)C)C(=O)N[C@@H](C)C(=O)N[C@@H](CC(N)=O)C(=O)N[C@H](C(N)=O)[C@@H](C)O)C(C)C)C(=O)O)C(=O)O` [Peptide 47] (H-HSQGS[αMeF]TSDVSK[Dip]LDSK([PEG2-PEG2-γGlu-γGlu-Stearoyl])AAQD[αMeF]VE[Aib]LANT-NH2; N-terminus assumed), in data set [1], the concentration giving a half-maximal response (EC50) was 1.72 pM and the “% Relative Potency Ratio” value came to 2.7. For the same molecule, in data set [2], the EC50 was found to be 2.38 pM. Moreover, in data set [3], the fraction remaining at 5 min, 3.3 mg/mL was 90%; the amount remaining at 10 min, 3.3 mg/mL was 88%; the amount remaining at 0.25 h, 3.3 mg/mL was 83%; the amount remaining at 0.5 h, 3.3 mg/mL is 75%. Besides, in data set [4] (dose 10 nmol/kg), the “24 hr % Vehicle Food Intake” value worked out at 51.4%.

For the molecule `CCCCCCCCCCCCCCCCCC(=O)N[C@@H](CCC(=O)N[C@@H](CCC(=O)NCCOCCOCCC(=O)NCCOCCOCCC(=O)NCCCC[C@H](NC(=O)[C@H](CO)NC(=O)[C@H](CC(=O)O)NC(=O)[C@H](CC(C)C)NC(=O)[C@@H](NC(=O)[C@H](CCCCN)NC(=O)[C@H](CO)NC(=O)[C@@H](NC(=O)[C@H](CC(=O)O)NC(=O)[C@H](CO)NC(=O)[C@@H](NC(=O)[C@](C)(Cc1ccccc1)NC(=O)[C@H](CO)NC(=O)CNC(=O)[C@H](CCC(N)=O)NC(=O)[C@H](CO)NC(=O)[C@@H](N)Cc1c[nH]cn1)[C@@H](C)O)C(C)C)C(c1ccccc1)c1ccccc1)C(=O)N[C@@H](C)C(=O)N[C@@H](C)C(=O)N[C@@H](CCC(N)=O)C(=O)N[C@@H](CC(=O)O)C(=O)N[C@@](C)(Cc1ccccc1)C(=O)N[C@H](C(=O)N[C@@H](CCC(=O)O)C(=O)NC(C)(C)C(=O)N[C@H](C(=O)N[C@H](C(=O)N[C@@H](CC(N)=O)C(=O)N[C@H](C(N)=O)[C@@H](C)O)[C@@H](C)CC)[C@@H](C)CC)C(C)C)C(=O)O)C(=O)O` [Peptide 50] (H-HSQGS[αMeF]TSDVSK[Dip]LDSK([PEG2-PEG2-γGlu-γGlu-Stearoyl])AAQD[αMeF]VE[Aib]IINT-NH2), in data set [1], the 50% effective concentration (EC50) was 4.9 pM and the “% Relative Potency Ratio” value is 3.5. In data set [2], the 50% effective concentration (EC50) turned out to be 8.74 pM. The amount remaining at 0.5 h, 3.3 mg/mL in data set [3] was 98%. Also, the “24 hr % Vehicle Food Intake” value in data set [4] (dose 10 nmol/kg) stood at 78.5%.

Regarding `CCCCCCCCCCCCCCCCCC(=O)N[C@@H](CCC(=O)N[C@@H](CCC(=O)NCCOCCOCCC(=O)NCCOCCOCCC(=O)NCCCC[C@H](NC(=O)[C@H](CO)NC(=O)[C@H](CC(=O)O)NC(=O)[C@H](CC(C)C)NC(=O)C(C)(C)NC(=O)[C@H](CCCCN)NC(=O)[C@H](CO)NC(=O)[C@@H](NC(=O)[C@H](CC(=O)O)NC(=O)[C@H](CO)NC(=O)[C@@H](NC(=O)[C@](C)(Cc1ccccc1)NC(=O)[C@H](CO)NC(=O)CNC(=O)[C@H](CCC(N)=O)NC(=O)[C@H](CO)NC(=O)[C@@H](N)Cc1c[nH]cn1)[C@@H](C)O)C(C)C)C(=O)N[C@@H](C)C(=O)N[C@@H](C)C(=O)N[C@@H](CCC(N)=O)C(=O)N[C@@H](CC(=O)O)C(=O)N[C@@](C)(Cc1ccccc1)C(=O)N[C@H](C(=O)N[C@@H](CCC(N)=O)C(=O)NC(C)(C)C(=O)N[C@H](C(=O)N[C@@H](C)C(=O)N[C@@H](CC(N)=O)C(N)=O)[C@@H](C)CC)C(C)C)C(=O)O)C(=O)O` [Peptide 97] (H-HSQGS[αMeF]TSDVSK[Aib]LDSK([PEG2-PEG2-γGlu-γGlu-Stearoyl])AAQD[αMeF]VQ[Aib]IAN-NH2; N-terminus assumed), the values for the half-maximal effective concentration (EC50) in data set [1] and in data set [2] were 1.05 pM and 13 pM, respectively. Also, in data set [1], the “% Relative Potency Ratio” value stood at 24.3. The “WT % glucose change 120 min” value with wildtype (WT) mice (10 nmol/kg) is on record as −41.9%; in the data set with wildtype (WT) mice (30 nmol/kg) it was −14.7%. In addition, the “GLP-1R KO % glucose change 120 min” value in data set [5] (10 nmol/kg) came to 91.1%; in data set [5] (30 nmol/kg), 150.8%.

For the molecule `CC(C)C[C@H](NC(=O)[C@H](Cc1c[nH]c2ccccc12)NC(=O)[C@H](CCC(N)=O)NC(=O)[C@@H](NC(=O)[C@H](Cc1ccccc1)NC(=O)[C@H](CC(=O)O)NC(=O)[C@H](CCCNC(=N)N)NC(=O)[C@H](C)NC(=O)[C@H](CCCNC(=N)N)NC(=O)[C@H](CCCCNC(=O)COCCOCCNC(=O)COCCOCCNC(=O)CC[C@H](NC(=O)CCCCCCCCCCCCCCCCCCC(=O)O)C(=O)O)NC(=O)[C@@H](NC(=O)[C@H](CC(=O)O)NC(=O)[C@H](CC(C)C)NC(=O)[C@](C)(Cc1ccccc1)NC(=O)[C@H](CCCCN)NC(=O)[C@H](CO)NC(=O)[C@@H](NC(=O)[C@H](CC(=O)O)NC(=O)[C@H](CO)NC(=O)[C@@H](NC(=O)[C@H](Cc1ccccc1)NC(=O)[C@@H](NC(=O)CNC(=O)[C@H](CCC(N)=O)NC(=O)C(C)(C)NC(=O)[C@@H](N)Cc1c[nH]cn1)[C@@H](C)O)[C@@H](C)O)C(C)C)[C@@H](C)O)C(C)C)C(=O)N[C@@H](CC(C)C)C(=O)N[C@@H](CCC(=O)O)C(=O)NC(C)(C)C(=O)NCC(=O)O` [Peptide 195, H-Aib-Q-G-T-F-T-S-D-V—S-K-αMePhe-L-D-T-K-R-A-R-D-F-V-Q-W-L-L-E-Aib-G-acid], the figures for the “WT % glucose change 60 min” value in the data set with wildtype (WT) mice (10 nmol/kg) and with wildtype (WT) mice (30 nmol/kg) were 1.4% and −17.0%, respectively. In addition, the “24 hr % Vehicle Food Intake” value in data set [4] (dose 1 nmol/kg) is 102.1%; in data set [4] (dose 3 nmol/kg), 84.0%; in data set [4] (dose 10 nmol/kg), 58.2% and 49.9%. Besides, the entries for the “GLP-1R KO % glucose change - 60 min” value in data set [5] (10 nmol/kg) and in data set [5] (30 nmol/kg) were 35.3% and 48.0%, respectively.

As usually defined, the EC50 is the concentration giving half of the maximal effect. For orientation: share remaining means what is left of the initial amount, in per cent.
